pKd: −log10 of the molar value.
How the values were obtained:
[1] = target: T1, LZK (leucine zipper-bearing kinase) (Homo sapiens, UniProt O43283); experiment: LZK degradation Western blot in CAL33 cells with dox-induced LZK; assay type: cell-based
T1 construct: gene MAP3K13
T1 sequence (O43283 1-966): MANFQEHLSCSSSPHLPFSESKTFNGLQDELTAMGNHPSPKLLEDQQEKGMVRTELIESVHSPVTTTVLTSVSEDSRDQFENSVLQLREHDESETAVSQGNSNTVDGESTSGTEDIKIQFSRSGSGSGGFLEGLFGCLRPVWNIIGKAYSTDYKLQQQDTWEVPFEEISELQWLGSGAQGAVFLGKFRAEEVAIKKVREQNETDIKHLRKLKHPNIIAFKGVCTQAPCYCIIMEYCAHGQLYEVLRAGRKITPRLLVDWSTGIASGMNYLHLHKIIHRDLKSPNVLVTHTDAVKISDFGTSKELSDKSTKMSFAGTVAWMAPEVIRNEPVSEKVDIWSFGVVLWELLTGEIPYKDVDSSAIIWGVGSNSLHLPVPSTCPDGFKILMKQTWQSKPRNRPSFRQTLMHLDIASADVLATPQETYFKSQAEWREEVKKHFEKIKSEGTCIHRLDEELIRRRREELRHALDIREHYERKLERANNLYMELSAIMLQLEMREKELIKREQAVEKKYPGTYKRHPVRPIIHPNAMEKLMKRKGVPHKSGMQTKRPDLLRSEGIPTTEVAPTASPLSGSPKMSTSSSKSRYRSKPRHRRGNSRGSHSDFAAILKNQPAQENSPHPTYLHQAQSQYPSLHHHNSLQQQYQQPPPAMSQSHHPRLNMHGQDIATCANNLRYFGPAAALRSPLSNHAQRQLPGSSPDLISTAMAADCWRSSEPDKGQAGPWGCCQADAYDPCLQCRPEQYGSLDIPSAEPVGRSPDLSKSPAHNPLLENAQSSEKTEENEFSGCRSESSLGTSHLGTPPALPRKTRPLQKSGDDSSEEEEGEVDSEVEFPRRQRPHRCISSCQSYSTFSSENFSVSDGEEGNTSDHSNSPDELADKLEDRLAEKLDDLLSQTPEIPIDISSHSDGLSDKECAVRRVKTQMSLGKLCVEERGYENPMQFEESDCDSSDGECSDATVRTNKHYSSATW

[2] = target: T1, LZK (leucine zipper-bearing kinase); experiment: KdELECT KINOMEscan competition binding assay

| Structure (SMILES) | LZK degradation Western blot in CAL33 cells with dox-induced LZK [1] | pKd [2] |
| --- | --- | --- |
| Cc1ncsc1-c1ccc([C@H](C)NC(=O)[C@@H]2C[C@@H](O)CN2C(=O)[C@@H](NC(=O)c2cncc(C(=O)N3CCC(c4cc(Nc5cc(C#N)ccn5)nc(N5CCC(F)(F)C5)c4)CC3)c2)C(C)(C)C)cc1 [PROTAC-21C] | PROTAC-21B, PROTAC-21C and PROTAC-21D (Figure 5B) also promoted degradation of LZK at higher concentrations |  |
| N#Cc1ccnc(Nc2cc(C3CCN(C(=O)c4cncc(C(=O)NCCCCNC(=O)CNc5cccc6c5C(=O)N(C5CCC(=O)NC5=O)C6=O)c4)CC3)cc(N3CCC(F)(F)C3)n2)c1 (stereo not shown) [PROTAC-21D] | PROTAC-21B, PROTAC-21C and PROTAC-21D (Figure 5B) also promoted degradation of LZK at higher concentrations |  |
| N#Cc1ccnc(Nc2cc(C3CCN(C(=O)CCCCCCC(=O)NCCCCNC(=O)CNc4cccc5c4C(=O)N(C4CCC(=O)NC4=O)C5=O)CC3)cc(N3CCC(F)(F)C3)n2)c1 (stereo not shown) [PROTAC-21B] | PROTAC-21B, PROTAC-21C and PROTAC-21D (Figure 5B) also promoted degradation of LZK at higher concentrations |  |
| Cc1ncsc1-c1ccc([C@H](C)NC(=O)[C@@H]2C[C@@H](O)CN2C(=O)[C@@H](NC(=O)CCCCCCC(=O)N2CCC(c3cc(Nc4cc(C#N)ccn4)nc(N4CCC(F)(F)C4)c3)CC2)C(C)(C)C)cc1 [PROTAC-21A] |  | 7.46 |
